A compilation of properties of binary mixtures (doi:10.1016/j.jct.2020.106383)

Assay: xn = mol fraction of the nth substance listed
Settings: 100 kPa

CCOC(C)=O + CCCC[n+]1ccn(C)c1.O=S(=O)([N-]S(=O)(=O)C(F)(F)F)C(F)(F)F
speed of sound [m/s]
Settings	x2 = 0	x2 = 0.1045	x2 = 0.2067	x2 = 0.3058	x2 = 0.4012	x2 = 0.5002	x2 = 0.6065	x2 = 0.7081	x2 = 0.7932	x2 = 0.9087
298.15 K	1143.2	–	1172	1182.9	1192	–	1207.6	1213.7	1218.2	–
303.15 K	1120.8	1137.6	1151.9	1164	1174.2	1183.4	1192	1199.3	–	1211.6
308.15 K	1098.7	1116.7	1132.1	1145.3	–	1166.9	1176.7	1185.1	1191.5	1199.6
313.15 K	1076.4	1095.5	1112.1	1126.5	1138.8	1150.3	1161.3	–	–	1187.7
318.15 K	–	1074.5	–	1107.8	1121.2	–	1146.1	–	1165.2	–
323.15 K	1032	1053.5	1072.5	–	1103.7	1117.4	1130.9	1142.8	–	1164.3

CCCC[n+]1ccn(C)c1.O=S(=O)([N-]S(=O)(=O)C(F)(F)F)C(F)(F)F + CCOC(C)=O
x1 = 1
Settings	speed of sound [m/s]
298.15 K	1227.9
303.15 K	1216.8
308.15 K	1205.8
313.15 K	1195
318.15 K	1184.2
323.15 K	1173.6
